Laboratory results taken from the CheMixHub drug solubility set.

Assay: xn = mol fraction of the nth substance listed, in the solute-free solvent

Cc1c(Br)cccc1C(=O)O + C1CCOC1 + CCOC(C)=O
solubility (g/100 g solution)
Details | x2 = 0.161 | x2 = 0.318 | x2 = 0.471 | x2 = 0.62 | x2 = 0.765 | x2 = 0.907
278.15 K | 11.6 | 16.7 | 21.6 | 26.2 | 30 | 35
283.15 K | 12.9 | 18.1 | 23.4 | 28.1 | 32 | 37.2
288.15 K | 14.2 | 19.7 | 24.9 | 29.9 | 33.8 | 39.1
293.15 K | 15.4 | 21.3 | 26.6 | 31.7 | 35.6 | 41.2
298.15 K | 16.9 | 22.7 | 28.2 | 33.4 | 37.3 | 43
303.15 K | 18.3 | 24.4 | 30 | 35.3 | 39 | 44.9
308.15 K | 19.8 | 26 | 31.6 | 36.9 | 40.6 | 46.5
313.15 K | 21.6 | 27.6 | 33.3 | 38.6 | 42.1 | 48.1
318.15 K | 23.4 | 29.4 | 35.1 | 40.2 | 43.6 | 49.6
323.15 K | 25.3 | 31.3 | 36.7 | 41.8 | 44.9 | 51.1
328.15 K | 27.6 | 33.3 | 38.5 | 43.6 | 46.2 | 52.5

CN1CCN(C2=Nc3cc(Cl)ccc3Nc3ccccc32)CC1 + CC#N + O
solubility (g/100 g solution)
Details | x2 = 0.04651 | x2 = 0.0989 | x2 = 0.1583 | x2 = 0.2264 | x2 = 0.3051 | x2 = 0.397 | x2 = 0.506 | x2 = 0.6372 | x2 = 0.798
278.15 K | 0.00519 | 0.0208 | 0.0473 | 0.113 | 0.207 | 0.366 | 0.609 | 0.903 | 1.23
283.15 K | 0.00691 | 0.0265 | 0.0589 | 0.138 | 0.248 | 0.431 | 0.707 | 1.04 | 1.39
288.15 K | 0.00905 | 0.034 | 0.0735 | 0.168 | 0.296 | 0.507 | 0.817 | 1.18 | 1.55
293.15 K | 0.0119 | 0.0432 | 0.0905 | 0.2 | 0.347 | 0.589 | 0.938 | 1.34 | 1.73
298.15 K | 0.0151 | 0.0532 | 0.111 | 0.238 | 0.41 | 0.682 | 1.08 | 1.5 | 1.95
303.15 K | 0.0193 | 0.0662 | 0.135 | 0.283 | 0.481 | 0.794 | 1.22 | 1.7 | 2.16
308.15 K | 0.0247 | 0.0831 | 0.164 | 0.336 | 0.558 | 0.91 | 1.39 | 1.92 | 2.39
313.15 K | 0.0308 | 0.101 | 0.197 | 0.398 | 0.642 | 1.05 | 1.56 | 2.11 | 2.64
318.15 K | 0.0384 | 0.123 | 0.233 | 0.465 | 0.746 | 1.19 | 1.75 | 2.37 | 2.91
323.15 K | 0.0473 | 0.15 | 0.281 | 0.542 | 0.855 | 1.35 | 1.96 | 2.63 | 3.2
328.15 K | 0.059 | 0.178 | 0.335 | 0.625 | 0.985 | 1.53 | 2.18 | 2.9 | 3.49
